Laboratory results reported in paper PMC8092876, “A Leucyl-tRNA Synthetase Inhibitor with Broad-Spectrum Antimycobacterial Activity” (Antimicrobial Agents and Chemotherapy, 2021).
Converted amounts (≈) assume the structure as drawn. Like-named read-outs stand apart in the source and are kept apart here.

Legend:
[1] = tested on: M. abscessus subsp. abscessus M199; assay: MIC assay in 96-well plate format; assay type: cell-based; conditions: Mycobacteroides abscessus; M. abscessus subsp. abscessus M199, clinical isolate
[2] = AMP (artificial membrane permeability) assay; assay type: in vitro ADME; conditions: PAMPA, pH 7.4
Protocol: An 8% L-α-phosphatidylcholine (EPC) in 1% cholesterol decane solution and a 1.8% EPC in cholesterol decane solution were prepared. The lipid solution was then aliquoted into 4 ml capped vials, sealed with parafilm, and stored in a −20°C freezer. The lipid solution was then transferred from 4 ml vial into a 96-well half area plate (130 μl/well) for daily assay usage. An additional 50 mM phosphate buffer with 0.5% encapsin (pH 7.4) was prepared. The assay was run by the Biomek FX and Biomek software. The assay procedure is written under the Biomek software. For one batch assay, it can test two 96-well sample plates with at least one standard on each sample plate. The total assay time was about 4 h. A total of 3.5 μl of lipid solution was added to the filler plate and shaken for 12 s, 250 μl of buffer was added to the donor side, and 100 μl of buffer was added to the receiver side. The assay plate was shaken for 45 min before adding the compounds. The test compounds (2.5 μl) were added to the donor side. The assay was run as replicates: assay plates 1 and 2 tested sample plate 1, and assay plates 3 and 4 tested sample plate 2. The assay plates were then incubated and shaken for 3 h at room temperature. […] Compound concentration was measured by HPLC at different time points.

[3] = tested on: M. abscessus Bamboo RM3 (LeuS V417M); assay: microbe, parasite or virus in culture; assay type: cell-based; conditions: RM3, batch 1, LeuS V417M
[4] = tested on: M. abscessus Bamboo biofilms; assay: Biofilm growth inhibition assay (biofilm MIC and MBC); assay type: cell-based, M. abscessus subsp. abscessus; conditions: Mycobacteroides abscessus
Protocol: The biofilm growth inhibition assay was performed as previously described ([40]). Innovotech MBEC 96-well biofilm assay plates (Innovotech 19111, Edmonton, AB, Canada) were used, and the supplier’s manual was followed with minor modifications. Mid-log-phase M. abscessus Bamboo precultures (OD600 = 0.4 to 0.6) were spun down at 3200 × g for 10 min at 25°C and washed with 7H9 medium without Tween 80 (7H9nt). Bacteria were resuspended into 25 ml 7H9nt to an OD600 of 0.0125 (1.0 × 10^6 CFU/ml). […] The lids with the pegs were transferred to a new MBEC multititer plate containing 150 μl of fresh 7H9nt medium per well without bacteria (0 h time point). After that, the pegs with growing biofilm were transferred once a day to a new multititer plate containing fresh 7H9nt medium. To measure growth of the biofilm formed on the peg, the pegs were washed in 200 μl of 7H9nt medium before they were aseptically removed and placed in 1.7 ml microcentrifuge tubes (VWR 87003-294, Rador, PA, United States) containing 500 μl PBS/Tween 80. The microcentrifuge tubes were vigorously vortexed at 2,000 rpm for 90 s at 25°C to detach the bacteria from the pegs before samples were serially diluted and plated for the determination of CFU/peg. […] The average drug-free biofilm growth was calculated by subtracting the average 24 h CFU/peg value from the average 72 h CFU/peg value for the untreated control pegs. The biofilm MIC was defined as the lowest drug concentration that reduced the CFU/peg by 90% relative to that of the average drug-free biofilm growth.

M. avium 11 = assay: MIC assay in 96-well plate format; assay type: cell-based, M. avium subsp. hominissuis; conditions: Mycobacterium avium, 96 h; M. avium 11, 7H9, 4 days; read-out: MIC
[5] = Mouse pharmacokinetics, intravenous administration; assay type: in vivo
Protocol: (§1) For pharmacokinetic studies, CD-1 male mice (22 to 25 g) were used for intravenous route and C57BL/6 female mice (18 to 20 g) were used for oral route. All animal studies were ethically reviewed and carried out in accordance with European Directive 2010/63/EU and the GSK policy on the care, welfare, and treatment of animals.
(§2) EC/11770 was administered by intravenous route at 1 mg/kg single dose in saline and by oral gavage at 1 mg/kg and 10 mg/kg single doses in 1% methyl cellulose (1% MC). Aliquots of 20 μl of blood were taken from the lateral tail vein by puncture from each mouse (n = 3 per route and dose) at 5, 15, and 30 min 1, 2, 4, 6, 8, and 24 h postdose for intravenous route and at 15, 30, and 45 min 1, 2, 4, 6, 8, and 24 h postdose for oral route. The blood aliquots were mixed with 40 μl of water and stored at −80°C prior to analysis. The samples were processed by protein precipitation: aliquots of 20 μl were mixed with acetonitrile/methanol (80:20 vol/vol) and then filtered in 0.45 μm well-plates (hydrophobic polytetrafluorethylene [PTFE], Millipore). The filtrates were analyzed by UPLC-MS/MS for the establishment of compound concentration. The ultraperformance liquid chromatography (UPLC)-MS/MS system included a UPLC Acquity (Waters) and an API4000 mass spec. (AB Sciex). A volume of 7.5 μl of sample was injected into the system, with an UPLC solvent gradient of 2 min and with a positive multiple reaction monitoring (MRM) mass detection mode.
(§3) Pharmacokinetic analysis was performed by noncompartmental data analysis (NCA) with Phoenix WinNonlin 6.3 (Pharsight, Certara L.P), and supplementary analysis was performed with GraphPad Prism 6 (GraphPad Software, Inc.).

[6] = tested on: M. abscessus Bamboo RM5 (LeuS V417M); assay: microbe, parasite or virus in culture; assay type: cell-based; conditions: RM5, batch 2, LeuS V417M
[7] = tested on: M. abscessus Bamboo RM2 (LeuS K502E); assay: microbe, parasite or virus in culture; assay type: cell-based; conditions: Mycobacteroides abscessus
[8] = tested on: M. abscessus subsp. massiliense M111; assay: MIC assay in 96-well plate format; assay type: cell-based; conditions: Mycobacteroides abscessus; M. abscessus subsp. massiliense M111, clinical isolate
[9] = Mouse pharmacokinetics, oral administration; assay type: in vivo; conditions: for AUC: female, C57BL/6, whole blood
Protocol: as §1, §2, §3

[10] = mouse, oral 10 mg/kg, average (SD)

## CC(C)(O)COc1ccc(Br)c2c1B(O)O[C@@H]2CN [EC/11770]
[1]
  MIC: 0.93 µM (≈ 0.307 µg/mL)
[2]
  Papp at 3 h: 27.5 ×10⁻⁶ cm/s
[3]; Mycobacteroides abscessus
  MIC: 60 to 75 µM (≈ 19.8 to 24.7 µg/mL)
[3]
  MIC: 62 µM (≈ 20.5 µg/mL)
[4]; 10-fold CFU/peg reduction vs 24 h
  MBC: 50 µM (≈ 16.5 µg/mL)
[4]; 48 h with drug, 90% reduction of CFU/peg growth
  MIC: 3.1 µM (≈ 1.02 µg/mL)
M. avium 11
  MIC: 4 µM (≈ 1.32 µg/mL)
[5]; male, CD-1, whole blood, mouse, intravenous 1 mg/kg, average (SD)
  half-life: 5.3 h
[5]; male, CD-1, whole blood, mouse, intravenous 1 mg/kg, average (SD), read-out: Vss
  Vd: 2.4 L/kg
[5]; male, CD-1, mouse, intravenous 1 mg/kg, whole blood, average (SD)
  AUC(0-inf): 3340 ng·h/mL
[5]; mouse, intravenous 1 mg/kg, liver blood flow 90 to 126 ml/min/kg
  in vivo clearance as share of liver blood flow in mice: approximately 5%
[5]; whole blood, mouse (CD-1 male), intravenous 1 mg/kg in saline, average (SD), read-out: In vivo CL
  clearance: 5 mL/min/kg
[6]; Mycobacteroides abscessus
  MIC: 60 to 75 µM (≈ 19.8 to 24.7 µg/mL)
[6]
  MIC: 75 µM (≈ 24.7 µg/mL)
[7]
  MIC: > 100 µM
[8]
  MIC: 0.95 µM (≈ 0.313 µg/mL)
[9]; mouse, oral 1 mg/kg, average (SD), read-out: AUC0–24_1 mg/kg
  AUC: 3560 ng·h/mL
[9]; mouse, oral 10 mg/kg, average (SD), read-out: AUC0–24_10 mg/kg
  AUC: 40500 ng·h/mL
[9]; mouse (C57BL/6 female), oral 1 mg/kg, average (SD)
  Cmax_1 mg/kg: 341 (51) ng/ml
[9]; mouse, oral 1 mg/kg
  %F_1 mg/kg: 100%
[9]; mouse, oral 1 mg/kg, average (SD)
  DNAUC0–24_1 mg/kg: 3,556 (179) ng h/ml per mg/kg
[9]; mouse, oral 1 mg/kg, range of values
  Tmax_1 mg/kg: 1.0−2.0 h
[9]; mouse, oral 10 mg/kg
  %F_10 mg/kg: 100%
  time above M. abscessus biofilm MIC: approximately 60%
  time above MIC in M. abscessus planktonic cultures: 100%
[9]; [10]
  Cmax_10 mg/kg: 4,393 (1,260) ng/ml
  DNAUC0–24_10 mg/kg: 4,053 (908) ng h/ml per mg/kg
[9]; mouse, oral 10 mg/kg, range of values
  Tmax_10 mg/kg: 0.75−2.0 h
